Reference: publication PMC5795052 (Open Biology, 2018)

Experiments:
[1] = system: aVP-induced IP3 production in hVSMC; test: IP3 production (ELISA) in hVSMC upon aVP stimulation; type: cell-based, human; conditions: TM peptides 10 µM, 30 min at 37°C, then aVP 1 µM, 5 min; n = 4; figure 8c
Procedure: (§1) hVSMCs (primary aortic smooth muscle cells, ATCC PCS-100-012), A7r5 cells (ATCC-CRL-1444) and HEK293T cells (ATCC-CRL-11268) were purchased from American Type Culture Collection. hVSMCs were cultured in vascular basal media (ATCC PCS-100-030) supplemented with the vascular smooth muscle growth kit (ATCC PCS-100-042), containing 100 U ml^−1 penicillin and 100 µg ml^−1 streptomycin. hVSMCs were used between passages 2–5. HEK293T and A7r5 cells were cultured in high-glucose Dulbecco's Modified Eagle's Medium containing 10 mg ml^−1 sodium pyruvate, 2 mM L-glutamine, 10% (vol/vol) FBS, 1× non-essential amino acids, 100 U ml^−1 penicillin and 100 µg ml^−1 streptomycin. The HTLA cell line, a HEK293 cell line stably expressing a tTA-dependent luciferase reporter and a β-arrestin 2–TEV fusion gene were generously provided by the laboratory of Dr Bryan Roth and maintained in high-glucose Dulbecco's Modified Eagle's Medium supplemented with 10% (vol/vol) FBS, 1× non-essential amino acids, 100 U ml^−1 penicillin, 100 µg ml^−1 streptomycin, 50 µg ml^−1 hygromycin B and 2 µg ml^−1 puromycin. All cells were cultured in a humidified environment at 37°C, 5% CO2.
ACKR3 and CXCR4 siRNA gene silencing was performed as described previously. In brief, cells were grown in 2 ml Accell siRNA delivery media per well (Dharmacon) in six-well plates (Nunc). Commercially available Accell ACKR3 and CXCR4 siRNA were reconstituted with 1× siRNA buffer to a stock concentration of 100 µM. Cells were then transfected with 1 µM ACKR3/CXCR4 siRNA and incubated for 72 h at 37°C, 5% CO2. Accell NT-siRNA pool was used as a negative control. After 72 h, cells were assayed for receptor cell surface expression and used for signalling experiments.
IP3 enzyme-linked immunosorbent assays were purchased from LS Bio and performed as per the manufacturer's protocol (LS BIO F10644). In brief, hVSMCs were grown to confluency in six-well dishes (Nunc) and then treated as described in the Results section. Cells were then washed once with cold PBS, 225 µl of cold PBS was added to each well and cells were lysed by ultrasonication. The cell lysate was centrifuged for 10 min at 4°C at 1500g to remove cellular debris. The total protein concentration in the supernatant was determined with the Bio-Rad DC Protein Assay as per the manufacturer's protocol (Bio-Rad 500-0116). Equivalent amounts of total protein were added to the ELISA strips diluted in the provided sample diluent (1 : 5 and 1 : 10). The assay was then completed as per the manufacturer's protocol. Optical densities were read on a Biotek Synergy II microplate reader (absorbance at 450 nm), and IP3 concentrations were extrapolated from the standard curve.

ACKR3 : AVPR1A heteromer = test: PLA signals for ACKR3 : AVPR1A interactions in hVSMC; type: cell-based, human; conditions: 10 µM, 30 min at 37°C; figure 8b; *p < 0.05 versus vehicle
Procedure: as §1
(§2) PLAs were performed as described in detail previously. In brief, cells were grown and fixed on eight-well chamber slides (Nunc). […]

CXCR4 : AVPR1A heteromer = test: PLA signals for CXCR4 : AVPR1A interactions in hVSMC; type: cell-based, human; conditions: 10 µM, 30 min at 37°C; figure 8b
Procedure: as §1, §2

ACKR3 [2] = test: β-arrestin 2 recruitment assay (PRESTO-Tango) for ACKR3 co-expressed with pcDNA3 or HA-AVPR1A; type: cell-based, human; conditions: cells co-expressing ACKR3-Tango and AVPR1A, TM peptides 10 µM, 30 min at 37°C, figure 9h; for effect of TM peptides on efficacy of aVP to induce β-arrestin 2 recruitment to ACKR3-Tango: then aVP, versus vehicle
Source text: The human AVPR1A cDNA sequence was from the AVPR1A-TANGO plasmid (Addgene, plasmid #66225). The hRLuc cDNA was PCR-amplified from pIRES-Myc-hCXCR4-Rluc, which was generously provided by Dr Michel Bouvier, with primers carrying the AgeI and XbaI sites at either end, respectively, and ligated with the C-terminus of AVPR1A at the corresponding sites. Human CXCR4 and ACKR3 cDNAs were from the CXCR4-TANGO (Addgene, plasmid #66262) and the ACKR3-TANGO (Addgene, plasmid #66265) plasmids. The EYFP cDNA was PCR-amplified from pEYFP with primers harbouring AgeI and XbaI sites and ligated with the C-terminus of ACKR3. All plasmids were confirmed by sequencing.
as §1
The PRESTO-Tango (parallel receptorome expression and screening via transcriptional output, with transcriptional activation following arrestin translocation) assay was performed as recently described. The Tango plasmids were a gift from Dr Bryan Roth (all from Addgene). HTLA cells (2.5 × 10^5 per well) were seeded in a six-well plate and transfected with 1.5 µg of the Tango plasmids using Lipofectamine 3000 (ThermoScientific). The following day, transfected HTLA cells (1 × 10^5 cells per well) were plated onto poly-L-lysine precoated 96-well microplates and allowed to attach to the plate surface for at least 4 h prior to treatment. Proteins used for treatment were prepared in twice the final concentration in culture media, added at a 1 : 1 vol/vol ratio and incubated overnight at 37°C, 5% CO2 in a humidified environment. The following morning, media were removed from cell culture plates and replaced with a 100 µl 1 : 5 mixture of Bright-Glo (Promega) and 1× HBSS, 20 mM HEPES solution. Plates were then incubated at room temperature before measuring luminescence on a Biotek Synergy II plate reader.

ACKR3 [3] = conditions: ref [21]; cited from earlier work
Procedure: The effects of the TM peptide analogues of ACKR3 on aVP-induced recruitment of β-arrestin 2 to ACKR3-Tango in cells co-expressing ACKR3-Tango and AVPR1A are shown in figure 9h.

Sequence	effect of TM peptides on aVP-induced IP3 production [1]	effect of TM peptides on PLA signals for AVPR1A : ACKR3 interactions (ACKR3 : AVPR1A heteromer)	effect of TM peptides on PLA signals for AVPR1A : CXCR4 interactions (CXCR4 : AVPR1A heteromer)	effect of TM peptides on efficacy of aVP to induce β-arrestin 2 recruitment to ACKR3-Tango (ACKR3 [2])	inhibition of aVP-induced β-arrestin 2 recruitment to ACKR3-Tango (comparison TM2/TM4) (ACKR3 [2])	mode of antagonism of aVP-induced β-arrestin 2 recruitment to ACKR3-Tango (ACKR3 [2])	behaviour in β-arrestin 2 recruitment to ACKR3-Tango upon agonist stimulation (ACKR3 [3])
VVCILWLLAFCVSLPDTYYLDD [TM4, peptide analogue of transmembrane helix 4 (TM4) of ACKR3, described previously [21]]	inhibited aVP-induced IP3 production	reduced PLA signals for AVPR1A : ACKR3 interactions	did not increase AVPR1A : CXCR4 interactions	significantly reduced the efficacy of aVP to induce β-arrestin 2 recruitment	inhibited aVP-induced β-arrestin 2 recruitment to ACKR3-Tango with comparable efficacy	non-competitive antagonists	behaviour similar to the TM2 peptide, but this effect did not reach statistical significance
YILNLAIADLWVVLTIPVWVVDDD [TM2, peptide analogue of transmembrane helix 2 (TM2) of ACKR3, described previously [21]]	inhibited aVP-induced IP3 production	reduced PLA signals for AVPR1A : ACKR3 interactions	did not increase AVPR1A : CXCR4 interactions	significantly reduced the efficacy of aVP to induce β-arrestin 2 recruitment	inhibited aVP-induced β-arrestin 2 recruitment to ACKR3-Tango with comparable efficacy	non-competitive antagonists	competitive antagonist
DDDLHVTQCLSLVHCCVNPVLYSFIN [TM7, peptide analogue of transmembrane helix 7 (TM7) of ACKR3, described previously [21]]	ineffective			did not show significant effects			inactive
